pKi: −log10 of the molar value.
Columns and labels:
[1] = biological target: T1, Phenylethanolamine N-methyltransferase (Homo sapiens) (UniProt P11086)
T1 sequence (whole entry): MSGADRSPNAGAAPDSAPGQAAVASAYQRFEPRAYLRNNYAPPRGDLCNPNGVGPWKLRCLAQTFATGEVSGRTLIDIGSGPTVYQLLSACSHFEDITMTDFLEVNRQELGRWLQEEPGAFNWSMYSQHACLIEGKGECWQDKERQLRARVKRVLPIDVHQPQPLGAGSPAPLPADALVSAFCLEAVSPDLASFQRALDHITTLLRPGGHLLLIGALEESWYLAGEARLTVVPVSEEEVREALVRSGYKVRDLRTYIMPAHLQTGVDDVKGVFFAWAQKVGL

[2] = biological target: T2, Alpha-2A adrenergic receptor (Rattus norvegicus, UniProt P22909); assay: Displacement of [3H]-clonidine from Sprague-Dawley rat alpha2 adrenergic receptor by radioligand binding assay
T2 sequence (P22909 whole entry): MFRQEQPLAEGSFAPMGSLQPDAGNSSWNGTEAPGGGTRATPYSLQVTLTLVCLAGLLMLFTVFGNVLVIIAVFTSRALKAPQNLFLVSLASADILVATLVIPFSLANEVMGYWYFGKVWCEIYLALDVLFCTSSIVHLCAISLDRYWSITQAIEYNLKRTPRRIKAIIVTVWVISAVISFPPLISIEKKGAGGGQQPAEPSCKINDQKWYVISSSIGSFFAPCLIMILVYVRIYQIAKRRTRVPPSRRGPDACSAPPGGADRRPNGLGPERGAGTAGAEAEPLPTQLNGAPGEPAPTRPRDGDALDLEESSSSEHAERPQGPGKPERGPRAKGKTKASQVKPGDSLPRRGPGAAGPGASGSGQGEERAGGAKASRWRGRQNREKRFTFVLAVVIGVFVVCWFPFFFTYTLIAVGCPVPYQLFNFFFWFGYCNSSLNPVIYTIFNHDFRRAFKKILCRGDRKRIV

[3] = biological target: T3, Phenylethanolamine N-methyltransferase (Homo sapiens, UniProt P11086); assay: Competitive inhibition of C-terminal hexahistidine tag in human recombinant PNMT expressed in Escherichia coli assessed as inhibition constant using AdoMet as substrate in presence of 100 uM PEA as co-substrate by Sigma-plot analysis
T3 sequence (P11086 whole entry): T1 sequence (whole entry)

Row | SMILES | Kis [1] | pKi [2] | pKi [3]
1 | NC(=O)C1Cc2ccccc2CN1 (stereo not given) | 31 µM | 3.60 | 
2 | Nc1ncnc2c1ncn2[C@@H]1O[C@H](CSCC[C@H](N)C(=O)O)[C@@H](O)[C@H]1O [S-ADENOSYLHOMOCYSTEINE] |  |  | 4.85
3 | NCC1Cc2ccccc2CN1 (stereo not given) | 1.4 µM | 5.82 | 
